Measured values published in patent EP4810052A2, “HCRHR2 SELECTIVE POLYPEPTIDES” (Gubra A/S, priority 2023, dated 2026).
Read-outs that look alike come from different tables or passages of the source. Starred links: 1 amine or outer side, 2 acyl side, 3 side chain; linkers in the order of their positions; H or OH if unused. Non-standard residues stand in square brackets, D forms with d. Residues, ends and D or L forms follow the SMILES beside them. Groups on a side chain read outwards from the residue. *: point of attachment. C20 diacid = O=C(O)CCCCCCCCCCCCCCCCCCC(=O)*; γGlu = O=C(O)[C@H](CCC(=O)[*:2])N[*:1]; Nle = CCCC[C@H](N)C(=O)O; AEEA = NCCOCCOCC(=O)O

Key:
hCRHR1 = target: T1, hCRHR1 (Homo sapiens, UniProt P34998); experiment: HTRF cAMP assay, determination of hCRHR1 potency (peptide libraries 5 conc., purified peptides 11 conc.); assay type: cell-based
T1 sequence (P34998 24-415): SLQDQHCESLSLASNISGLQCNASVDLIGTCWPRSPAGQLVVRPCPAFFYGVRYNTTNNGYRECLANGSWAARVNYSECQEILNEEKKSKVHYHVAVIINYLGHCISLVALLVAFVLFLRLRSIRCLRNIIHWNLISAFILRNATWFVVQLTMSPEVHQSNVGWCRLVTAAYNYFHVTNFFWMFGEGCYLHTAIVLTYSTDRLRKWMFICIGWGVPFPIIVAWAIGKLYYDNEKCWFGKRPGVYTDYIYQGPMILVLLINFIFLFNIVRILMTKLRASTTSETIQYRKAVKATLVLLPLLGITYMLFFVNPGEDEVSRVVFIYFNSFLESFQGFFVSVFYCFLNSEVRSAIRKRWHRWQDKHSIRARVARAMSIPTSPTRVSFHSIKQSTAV
Outline: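 Cellular cAMP was read by time-resolved FRET between d2-labelled cAMP and cryptate anti-cAMP antibody. The cells were freshly thawed suspension CHO-K1 cells stably expressing human CRHR1.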

[1] = Chemical stability of purified peptides (RP-UHPLC main peak purity loss); assay type: physicochemical; conditions: 40°C; for Chemical stability at pH 7.5 after 14 days at 40°C (% degradation): pH 7.5, 14 days; for Chemical stability at pH 7.5 after 28 days at 40°C (% degradation): pH 7.5, 28 days
Method: Chemical stability was tested at a concentration of approximately of 1.0 mg/ml peptide in the following vehicles: 50 mM phosphate buffer pH 7.5. Dissolved samples were incubated for at least 2 h at room temperature on a rocking table. The main peak purity at time zero (T0) was determined using reversed phase chromatography. The samples were incubated at 40°C for 14 days (T14) and 28 days (T28). The samples were analyzed with reversed phase chromatography and size exclusion chromatography.
Reversed Phase chromatography was performed on a Thermo Dionex Ultimate UHPLC system with UV detection at 215 nm) and equipped with a Kinetex column (1.7 µm, C8, 100 Å, 150 x 2.1 mm (00F-4499-AN)). Analysis was performed by gradient elution with buffer A (0.1% TFA in 95:5 H2O:acetonitrile) and buffer B (0.1% TFA in 5:95 H2O: acetonitrile) at a column temperature of 50 °C (gradient used 25-55%B over 40 min. Flowrate was 0.5 mL/min. The main peak purity was determined from the integrated chromatogram as the area under the main peak relative to the total peak area. The purity loss was calculated as the difference between the T0 and T14 time point and/or as the difference between the T0 and T28 time point.
The chemical stability of selected peptides was evaluated at varying pH's at 40° C over 28 days. Samples were prepared and analysed as described in procedure with the addition of pH adjusting samples to the targets indicated below. As a comparator,r commercially available semaglutide drug product (Ozempic®, Novo Nordisk) was included in the sample set.

[2] = Thioflavin T fibril formation assay of purified peptides; assay type: physicochemical; design: key: Amyloid fibril formation detected by an increase in ThT fluorescence was denoted with "Yes"; samples without increasing ThT fluorescence hence not forming amyloid fibrils were denoted "No"; conditions: pH 7.5
Method: Thioflavin T fibril formation assay: Peptides were dissolved as 267 µM in 50 mM phosphate buffer pH 7.5 for 2 h at room temperature on a rocking table. The samples were then divided into three replicates of 80 µl/well and mixed with 2 µl/well Thioflavin T (ThT)to a final concentration of 4 µM ThT in a black 384 well microplate with a clear bottom (Greiner #781096). The plate was inserted in a CLARIOstar Plus microplate reader (BMG Labtech) and fibril formation was measured as an increase in fluorescence emission at 480 nm (excitation at 450 nm) during 96 h at 40°C with cycles of 5 min rest and 5 min linearshaking at700 rpm.
Compounds were dissolved to 200 µM (ca 1.0 mg/ml) in 50 mM phosphate buffer with preparation and ThT assay performed as described in the "General procedure for determination of fibril formation of peptides." above. Furthermore, samples were adjusted to pH values as indicated below. Additional co-formulations of compounds with semaglutide were prepared by dissolving compounds to 200 µM in commercially available semaglutide drug product (Ozempic®); these co-formulations were adjusted to pH 7.4.

hCRHR2 = target: T2, hCRHR2 (Homo sapiens, UniProt Q13324); experiment: HTRF cAMP assay, determination of hCRHR2 potency (peptide libraries 5 conc., purified peptides 11 conc.); assay type: cell-based; conditions: for Selectivity ratio (hCRHR1/ hCRHR2): Table 5
T2 sequence (Q13324 1-411): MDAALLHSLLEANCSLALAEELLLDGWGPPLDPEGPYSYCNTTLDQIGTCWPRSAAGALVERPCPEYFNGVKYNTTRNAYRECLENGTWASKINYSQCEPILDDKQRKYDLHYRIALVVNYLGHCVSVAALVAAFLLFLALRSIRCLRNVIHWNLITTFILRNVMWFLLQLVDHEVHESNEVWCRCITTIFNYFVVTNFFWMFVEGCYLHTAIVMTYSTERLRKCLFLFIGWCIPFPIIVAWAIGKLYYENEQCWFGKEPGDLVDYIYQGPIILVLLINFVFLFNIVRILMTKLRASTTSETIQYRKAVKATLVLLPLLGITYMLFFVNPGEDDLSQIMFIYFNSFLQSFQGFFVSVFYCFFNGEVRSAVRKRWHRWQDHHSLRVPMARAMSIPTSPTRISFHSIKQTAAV
Outline: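 Cells: CHO-K1/hCRHR2 stable clone, suspension, freshly thawed. Readout: competitive TR-FRET, anti-cAMP cryptate vs cAMP-d2. Analysis: sigmoid variable-slope nonlinear regression → EC50.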

[3] = pH 7.5
[4] = Table 5, purified peptides, read-out: hCRHR1 EC50
[5] = library peptides, matched molecular pairs L vs Nle in position X^38, read-out: Potency hCRHR1 pEC50 (converted)
[6] = Table 5, purified peptides, read-out: hCRHR2 EC50
[7] = library peptides, matched molecular pairs L vs Nle in position X^38, read-out: Potency hCRHR2 pEC50 (converted)

Compound	EC50 (hCRHR1; [4]) [nM]	EC50 (hCRHR1; [5]) [nM]	Chemical stability at pH 7.5 after 14 days at 40°C (% degradation) [1] [%]	Chemical stability at pH 7.5 after 28 days at 40°C (% degradation) [1] [%]	Fibrillation (pH 7.5) [2]	Selectivity ratio (hCRHR1/ hCRHR2) (hCRHR2)	EC50 (hCRHR2; [6]) [nM]	EC50 (hCRHR2; [7]) [nM]	Solubility pH 7.5, target conc. =10 mg/mL (measured mg/mL) [3] [mg/mL]
CCCC[C@H](NC(=O)[C@@H](NC(=O)[C@H](CCC(=O)O)NC(=O)[C@H](C)NC(=O)[C@H](CC(N)=O)NC(=O)[C@@H](NC(=O)[C@H](CCCCNC(=O)COCCOCCNC(=O)COCCOCCNC(=O)CC[C@H](NC(=O)CC[C@H](NC(=O)CCCCCCCCCCCCCCCCCCC(=O)O)C(=O)O)C(=O)O)NC(=O)[C@H](C)NC(=O)[C@H](CCC(N)=O)NC(=O)[C@H](CCC(=O)O)NC(=O)[C@H](CCCNC(=N)N)NC(=O)[C@H](C)NC(=O)[C@H](C)NC(=O)[C@H](CCCNC(=N)N)NC(=O)[C@H](C)NC(=O)[C@H](CCCNC(=N)N)NC(=O)[C@H](C)NC(=O)[C@H](CCC(N)=O)NC(=O)[C@H](CCC(=O)O)NC(=O)[C@H](CC(C)C)NC(=O)[C@H](CC(C)C)NC(=O)[C@@H](NC(=O)[C@H](CCC(N)=O)NC(=O)[C@H](CC(C)C)NC(=O)[C@H](CC(C)C)NC(=O)CNC(=O)[C@@H](NC(=O)[C@@H]1CCCN1C(=O)[C@@H](NC(=O)[C@H](CC(=O)O)NC(=O)[C@H](CC(C)C)NC(=O)[C@H](CO)NC(=O)[C@H](CC(C)C)NC(=O)[C@@H](NC(=O)[C@@H](N)[C@@H](C)CC)C(C)C)C(C)C)[C@@H](C)CC)[C@@H](C)CC)[C@@H](C)O)[C@@H](C)CC)C(=O)N[C@@H](C)C(=O)N[C@@H](CCC(=O)O)C(=O)N[C@H](C(N)=O)[C@@H](C)CC [compound 69] (H-IVLSLDVPIGLLQILLEQARARAAREQAK([AEEA-AEEA-γGlu-γGlu-C20 diacid])TNAEI[Nle]AEI-NH2)	> 5000	3980	-0.5	-8.8	No	>9259	0.54	0.2	10
CCCC[C@H](NC(=O)[C@@H](NC(=O)[C@H](CCC(=O)O)NC(=O)[C@H](C)NC(=O)[C@H](CC(N)=O)NC(=O)[C@@H](NC(=O)[C@H](CCCCNC(=O)COCCOCCNC(=O)COCCOCCNC(=O)CC[C@H](NC(=O)CC[C@H](NC(=O)CCCCCCCCCCCCCCCCCCC(=O)O)C(=O)O)C(=O)O)NC(=O)[C@H](C)NC(=O)[C@H](CCC(N)=O)NC(=O)[C@H](CCC(=O)O)NC(=O)[C@H](CCCNC(=N)N)NC(=O)[C@H](C)NC(=O)[C@H](C)NC(=O)[C@H](CCCNC(=N)N)NC(=O)[C@H](C)NC(=O)[C@H](CCCNC(=N)N)NC(=O)[C@H](C)NC(=O)[C@H](CCC(N)=O)NC(=O)[C@H](CO)NC(=O)[C@H](CC(C)C)NC(=O)[C@H](CC(C)C)NC(=O)[C@@H](NC(=O)[C@H](CCC(N)=O)NC(=O)[C@H](CC(C)C)NC(=O)[C@H](CC(C)C)NC(=O)CNC(=O)[C@@H](NC(=O)[C@@H]1CCCN1C(=O)[C@@H](NC(=O)[C@H](CC(=O)O)NC(=O)[C@H](CC(C)C)NC(=O)[C@H](CO)NC(=O)[C@H](CC(C)C)NC(=O)[C@@H](NC(=O)[C@@H](N)[C@@H](C)CC)C(C)C)C(C)C)[C@@H](C)CC)[C@@H](C)CC)[C@@H](C)O)[C@@H](C)CC)C(=O)N[C@@H](C)C(=O)N[C@@H](CCC(=O)O)C(=O)N[C@H](C(N)=O)C(C)C [compound 83] (H-IVLSLDVPIGLLQILLSQARARAAREQAK([AEEA-AEEA-γGlu-γGlu-C20 diacid])TNAEI[Nle]AEV-NH2)	> 5000	7940	-3.2	-10	No	>9091	0.55	0.316	9.5
CCCC[C@H](NC(=O)[C@@H](NC(=O)[C@H](CCC(=O)O)NC(=O)[C@H](C)NC(=O)[C@H](CC(N)=O)NC(=O)[C@H](CCC(=O)O)NC(=O)[C@H](CCCCNC(=O)COCCOCCNC(=O)COCCOCCNC(=O)CC[C@H](NC(=O)CC[C@H](NC(=O)CCCCCCCCCCCCCCCCCCC(=O)O)C(=O)O)C(=O)O)NC(=O)[C@H](C)NC(=O)[C@H](CCC(N)=O)NC(=O)[C@H](CCC(=O)O)NC(=O)[C@H](CCCNC(=N)N)NC(=O)[C@H](C)NC(=O)[C@H](C)NC(=O)[C@H](CCCNC(=N)N)NC(=O)[C@H](C)NC(=O)[C@H](CCCNC(=N)N)NC(=O)[C@H](C)NC(=O)[C@H](CCC(N)=O)NC(=O)[C@H](CO)NC(=O)[C@H](CC(C)C)NC(=O)[C@H](CC(C)C)NC(=O)[C@@H](NC(=O)[C@H](CCC(N)=O)NC(=O)[C@H](CC(C)C)NC(=O)[C@H](CC(C)C)NC(=O)CNC(=O)[C@@H](NC(=O)[C@@H]1CCCN1C(=O)[C@@H](NC(=O)[C@H](CC(=O)O)NC(=O)[C@H](CC(C)C)NC(=O)[C@H](CO)NC(=O)[C@H](CC(C)C)NC(=O)[C@@H](NC(=O)[C@@H](N)[C@@H](C)CC)C(C)C)C(C)C)[C@@H](C)CC)[C@@H](C)CC)[C@@H](C)CC)C(=O)N[C@@H](C)C(=O)N[C@@H](CCC(=O)O)C(=O)N[C@H](C(N)=O)C(C)C [compound 239] (H-IVLSLDVPIGLLQILLSQARARAAREQAK([AEEA-AEEA-γGlu-γGlu-C20 diacid])ENAEI[Nle]AEV-NH2)	> 5000	–	-1.9	-2.2	No	>5556	0.9	–	11
